Data on 4 compounds can be found in paper PMC11856108, “Capsaicin (But Not Other Vanillins) Enhances Estrogen Binding to Its Receptor: Implications for Power Sports and Cancers” (Life, 2025).

Molecules are shown by their SMILES. Read-outs that look alike come from different tables or passages of the source.

The nature of assay [1]: Binding to steroid hormone by UV spectroscopy. The protocol: (§1) UV spectroscopy in a crystal plate was used to investigate whether CAP has specificity for estrogen alone or whether it can bind to other naturally occurring hormones. To start, CAP was dissolved in a 1:1 solution of water to ethanol at 1 mg/mL ( 3.27×10^−3 M ) and then diluted by thirds eight times. Next, the hormones were dissolved in a 1:1 solution of water to ethanol at a 1/100 dilution. An amount of 50 μL of each CAP dilution was added to 3 wells of a crystal plate, with one well serving as the control, with another 50 μL of 1:1 water to ethanol added, and the other two serving as experimental duplicates, with 50 μL of the prepared hormone solution added. Then, two additional wells were prepared to serve as controls: one containing 100 μL of 1:1 water to ethanol and the other containing 50 μL of prepared hormone solution and 50 μL of 1:1 water to ethanol. Finally, the plate was incubated for 1 h and read in a Spectramax UV-VIS scanning spectrophotometer, spanning wavelengths from 190 to 400 nm. Data analysis involved the subtraction of observed absorbance values from expected absorbance values generated from the control wells ([CAP + 1:1 solution] + [hormone + 1:1 solution] − [1:1 solution]) and plotting them as a function of CAP concentration. Because the solvent (1:1 solution of water–ethanol) was used as a control and subtracted from all wells, the resulting data reflected only the absorbances of the solute compounds. Since each compound has a different lambda maximal absorbance, analysis of the resulting data required finding one common wavelength at which the additions and subtractions of the spectra could be carried out and at which the absorbance of each compound was maximized.
Experiments were also performed to test whether the enhancement or antagonism observed in estradiol binding to the ESR1 might be due to vanilloid compounds binding directly to estradiol or to related steroidal hormones, perhaps protecting them from oxidation or forming a complex that prevented the estradiol binding to its receptor. No vanilloid compound bound to a measurable degree to estradiol or any other steroidal hormone tested.

Assay [2] deals with insulin (human recombinant) (Homo sapiens, UniProt P01308). Nature of the assay: Binding to insulin by ultraviolet spectroscopy. To be noted: UV spectroscopy.
Assay [3] deals with insulin receptor (IR) (Homo sapiens, UniProt P06213). Kind of assay: Binding to the insulin receptor by ultraviolet spectroscopy. To be noted: UV spectroscopy. The procedure: as §1
[17, 19, 20, 21, 22, 23]. […] Because CAP binds to INS, it was possible that it might antagonize INS binding to its receptor. […] Two types of ultraviolet spectroscopy experiments were performed. In one, INS (1 µM) and the IR were kept constant and the concentration of CAP increased from 0.1 µM to 100 µM. In the other, the CAP (25 µM) and IR were kept constant and the concentration of INS increased from 10 nM to 10 µM. In neither experiment was any significant change in the INS binding curve observed.
CAP did bind to the ESR1 with what appears to be a high affinity (Kd = 0.9 µM) and a lower affinity (Kd = 10 µM) site. […] Other vanilloid compounds also bound to the ESR1 but with lower affinity than CAP (Figure 6). None bound to the IR.

Assay [4] deals with T1, ESR1 (Homo sapiens, UniProt P03372).
T1 construct: purchased Invitrogen-Thermofisher
T1 sequence (P03372 1-595): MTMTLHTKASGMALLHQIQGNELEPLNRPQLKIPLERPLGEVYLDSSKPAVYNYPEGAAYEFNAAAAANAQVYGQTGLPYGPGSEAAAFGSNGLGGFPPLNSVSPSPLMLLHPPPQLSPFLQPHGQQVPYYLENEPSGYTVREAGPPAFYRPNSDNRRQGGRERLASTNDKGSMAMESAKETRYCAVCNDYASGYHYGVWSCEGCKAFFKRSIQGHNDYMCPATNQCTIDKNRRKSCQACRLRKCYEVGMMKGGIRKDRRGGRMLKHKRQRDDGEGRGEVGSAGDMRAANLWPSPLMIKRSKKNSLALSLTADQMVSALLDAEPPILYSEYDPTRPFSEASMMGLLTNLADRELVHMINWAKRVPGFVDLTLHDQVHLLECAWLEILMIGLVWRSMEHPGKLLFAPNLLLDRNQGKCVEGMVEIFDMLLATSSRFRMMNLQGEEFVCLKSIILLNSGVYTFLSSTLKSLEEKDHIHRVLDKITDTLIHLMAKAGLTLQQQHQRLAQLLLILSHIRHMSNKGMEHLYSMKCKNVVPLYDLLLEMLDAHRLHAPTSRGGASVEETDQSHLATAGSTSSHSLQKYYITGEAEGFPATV
Nature of the assay: Competitive-binding ELISA of EST-HRP binding to the estrogen receptor. (In general: An ELISA detects its analyte on a solid surface through an enzyme-linked reagent.)

Assay [5] has as its target T2, Estrogen receptor alpha (ER alpha) recombinant protein (ESR1) (Homo sapiens, UniProt P03372).
T2 sequence (P03372 1-595): T1 sequence (P03372 1-595)
Nature of the assay: Binding to the estrogen receptor by ultraviolet spectroscopy. To be noted: UV spectroscopy; listed as vanillin.

Chain of insulin (human recombinant) (P01308 25-54 limits assumed): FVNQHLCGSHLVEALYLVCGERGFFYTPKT
Chain of insulin (human recombinant) (P01308 90-110 limits assumed): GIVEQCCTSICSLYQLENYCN
Chain of insulin receptor (IR) (P06213 28-1382, species assumed): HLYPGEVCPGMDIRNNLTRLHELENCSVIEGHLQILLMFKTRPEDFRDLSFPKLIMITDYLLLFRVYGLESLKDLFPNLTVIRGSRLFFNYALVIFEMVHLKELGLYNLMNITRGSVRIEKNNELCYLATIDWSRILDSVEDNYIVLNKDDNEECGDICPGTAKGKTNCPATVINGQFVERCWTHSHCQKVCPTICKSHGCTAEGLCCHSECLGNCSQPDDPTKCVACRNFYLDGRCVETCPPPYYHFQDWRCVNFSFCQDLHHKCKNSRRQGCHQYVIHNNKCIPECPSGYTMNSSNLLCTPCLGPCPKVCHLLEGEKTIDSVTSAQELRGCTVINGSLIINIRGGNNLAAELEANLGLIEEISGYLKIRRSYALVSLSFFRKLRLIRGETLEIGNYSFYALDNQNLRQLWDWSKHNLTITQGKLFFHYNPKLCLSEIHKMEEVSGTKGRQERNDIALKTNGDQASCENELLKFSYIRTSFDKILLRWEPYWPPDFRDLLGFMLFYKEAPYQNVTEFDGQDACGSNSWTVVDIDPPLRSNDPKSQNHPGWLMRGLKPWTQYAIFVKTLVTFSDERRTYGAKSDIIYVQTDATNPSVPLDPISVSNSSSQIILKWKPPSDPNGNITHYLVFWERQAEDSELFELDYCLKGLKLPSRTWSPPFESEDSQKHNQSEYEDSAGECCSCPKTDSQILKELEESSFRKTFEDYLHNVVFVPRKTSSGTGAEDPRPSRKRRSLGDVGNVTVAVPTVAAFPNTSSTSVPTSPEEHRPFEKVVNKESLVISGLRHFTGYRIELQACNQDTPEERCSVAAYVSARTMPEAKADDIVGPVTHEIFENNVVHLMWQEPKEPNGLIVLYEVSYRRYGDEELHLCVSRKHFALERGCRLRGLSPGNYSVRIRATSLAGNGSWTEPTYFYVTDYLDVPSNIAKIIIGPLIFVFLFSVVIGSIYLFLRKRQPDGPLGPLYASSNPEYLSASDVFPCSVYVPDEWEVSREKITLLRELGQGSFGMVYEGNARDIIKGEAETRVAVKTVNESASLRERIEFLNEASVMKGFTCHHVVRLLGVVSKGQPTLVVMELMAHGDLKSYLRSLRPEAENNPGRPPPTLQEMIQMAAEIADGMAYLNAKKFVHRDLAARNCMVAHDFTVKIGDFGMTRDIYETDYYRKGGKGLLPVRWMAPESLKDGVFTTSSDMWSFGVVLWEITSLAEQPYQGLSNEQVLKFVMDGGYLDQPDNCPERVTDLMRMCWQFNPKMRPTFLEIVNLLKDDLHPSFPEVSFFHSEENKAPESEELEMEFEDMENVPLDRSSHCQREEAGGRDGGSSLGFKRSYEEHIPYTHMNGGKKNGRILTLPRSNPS

In the case of `CC(=O)Nc1ccc(O)cc1` [Acetaminophen, acetaminophen], in assay [1], the “Binding (Kd) 4-Androstene-3,17-dione” value was “No binding”, the “Binding (Kd) 5-Pregnan-3β-OL-2O-one” value is listed as “No binding”, the “Binding (Kd) Estradiol” value was “No binding” and the “Binding (Kd) Estriol” value was “No binding”. Besides, the “Binding (Kd) Progesterone” value in assay [1] is listed as “No binding”. For the same compound, the “Binding (Kd) Estradiol” value in assay [1] (listed as acetaminophen) is listed as “did not bind directly to estradiol”. For the same compound, in assay [2], the “binding to insulin (in words)” value was “Neither vanillin nor acetaminophen bound significantly to insulin”.

Broadly, the Kd is the concentration at which binding is half-saturated. Take `COc1cc(C(=O)O)ccc1O` [Van Acid, vanillic acid]: in assay [1], the “Binding (Kd) 4-Androstene-3,17-dione” value is “No binding”, the “Binding (Kd) 5-Pregnan-3β-OL-2O-one” value is “No binding”, the “Binding (Kd) Estradiol” value is “No binding” and the “Binding (Kd) Estriol” value is “No binding”. Further, the “Binding (Kd) Progesterone” value in assay [1] is on record as “No binding”. Besides, the “Binding (Kd) Estradiol” value in assay [1] (listed as vanillic acid) is recorded as “did not bind directly to estradiol”. For the same compound, the Kd in assay [2] (Binding (Kd) Insulin, Table 1) stood at 4 µM. For the same compound, the “binding to insulin (in words)” value in assay [2] was “bound almost as well as capsaicin”.

As for `COc1cc(C=O)ccc1O` [Vanillin, vanillin], in assay [1], the “Binding (Kd) 4-Androstene-3,17-dione” value is on record as “No binding”, the “Binding (Kd) 5-Pregnan-3β-OL-2O-one” value is given as “No binding”, the “Binding (Kd) Estradiol” value was “No binding” and the “Binding (Kd) Estriol” value is listed as “No binding”. For the same compound, the “Binding (Kd) Progesterone” value in assay [1] is “No binding”. Besides, the “Binding (Kd) Estradiol” value in assay [1] (listed as vanillin) is “did not bind directly to estradiol”. For the same compound, in assay [2] (listed as vanillin), the “binding to insulin (in words)” value is recorded as “Neither vanillin nor acetaminophen bound significantly to insulin”. In assay [3], the “binding to the insulin receptor (in words)” value is given as “did not bind significantly”. Also, the “effect on estradiol (EST-HRP) binding to the estrogen receptor” value in assay [4] is on record as “no effect on estradiol binding”. In assay [4] (listed as VAN), the “effect on estradiol (EST-HRP) binding to the estrogen receptor” value was “no significant effect on estradiol binding”. Besides, the “binding to the estrogen receptor (in words)” value in assay [5] is on record as “weakly to the estrogen receptor”.

Regarding `C[C@]12CC[C@@H]3c4ccc(O)cc4CC[C@H]3[C@@H]1CC[C@@H]2O` [estradiol], the “binding to the insulin receptor (in words)” value in assay [3] is “did not bind to the IR”.
